From patent publication US20100323890A1, “METHOD FOR IMPROVING THE RESISTANCE OF PLANTS TO STRESS AND CORRESPONDING PRODUCTS” (priority 2007, published 2010)

Tested on: Arabidopsis thaliana
Assay: Arabidopsis thaliana seedling growth on culture medium containing 1 μM atrazine (atrazine tolerance)
Format: in vivo
Details: 15 days of incubation
Description: In this context, a mixture of sucrose and putrescine were tested. […] For a first control, no carbohydrate or polyamine were added to the culture medium. For a second control, only sucrose, at a rate of 3%, which is equivalent to a concentration of 87 millimolar, was added thereto. Finally, for a test according to the present invention, sucrose, at a rate of 3% and putrescine, at a rate of 3 to 6 mM, were added to the culture medium. The Petri dishes were stored for 48 hrs at 4° C. and transferred to 22° C. for a photoperiod of 16 hours per day at 4500 lux. The parameters characterizing the plant growth were referenced after 15 days of incubation: the biomass (% fresh weight) and chlorophyll (μg/seedling) produced were determined; the development of the main root (cm) and the secondary root system (primordia/seedlings) were recorded.

SMILES	seedling development in the presence of atrazine (FIG. 1) (no carbohydrate or polyamine added)	effect on atrazine inhibition / atrazine resistance, by size of the seedlings (FIG. 1)
CCNc1nc(Cl)nc(NC(C)C)n1 [atrazine, 2-chloro-4-ethylamino-6-isopropylamine-1,3,5-triazine]	unable to develop the photosynthetic apparatus	–
OC[C@H]1O[C@@](CO)(O[C@H]2O[C@H](CO)[C@@H](O)[C@H](O)[C@H]2O)[C@@H](O)[C@@H]1O [sucrose]	–	makes it possible to lift the atrazine inhibition effect
